Patent US10039713B1, “Drug-loaded ganglioside micelle and the preparation method and use thereof” (Chongqing University, priority 2017, dated 2018)

System: blood brain barrier
Assay: Evaluation on intracranial blood brain barrier penetrating effect of a GM1 micelle (animal living body fluorescence imaging)
Format: in vivo
Settings: healthy mice, intravenous injection of tails, FIG. 2
Method: According to the preparation method of DOX-GM1 in the example 1, a fluorescent dye DiR-GM1 mixed micelle was prepared according to the same method. DiR-GM1 micelle and free-DiR were intravenous injected of tails of the healthy mice. The distribution and strength of the DiR fluorescence in tissues are observed and recorded by the animal living body imagery at different time points.

CCCCCCCCCCCCCCCCCCN1/C(=C/C=C/C=C/C=C/C2=[N+](CCCCCCCCCCCCCCCCCC)c3ccccc3C2(C)C)C(C)(C)c2ccccc21.[I-] [DiR solution]
entry into the brain / blood-brain barrier penetration: cannot enter the brain | fluorescence distribution (DiR) in tissues (in-vivo imaging at different time points): concentrated in the liver
